From ChEMBL document CHEMBL1201862, “PubChem BioAssay data set” (2004) come the findings set out here.

By EC50 is commonly meant the concentration at which the effect is half-maximal. By IC50 is commonly meant the concentration at which inhibition is half-maximal. In general, AC50 refers to the midpoint of the concentration-response curve, whichever way the signal moves.

Experiment [1] concerns the target T1, Heat shock factor protein 1 (Mus musculus, UniProt P38532).
T1 sequence (P38532 whole entry): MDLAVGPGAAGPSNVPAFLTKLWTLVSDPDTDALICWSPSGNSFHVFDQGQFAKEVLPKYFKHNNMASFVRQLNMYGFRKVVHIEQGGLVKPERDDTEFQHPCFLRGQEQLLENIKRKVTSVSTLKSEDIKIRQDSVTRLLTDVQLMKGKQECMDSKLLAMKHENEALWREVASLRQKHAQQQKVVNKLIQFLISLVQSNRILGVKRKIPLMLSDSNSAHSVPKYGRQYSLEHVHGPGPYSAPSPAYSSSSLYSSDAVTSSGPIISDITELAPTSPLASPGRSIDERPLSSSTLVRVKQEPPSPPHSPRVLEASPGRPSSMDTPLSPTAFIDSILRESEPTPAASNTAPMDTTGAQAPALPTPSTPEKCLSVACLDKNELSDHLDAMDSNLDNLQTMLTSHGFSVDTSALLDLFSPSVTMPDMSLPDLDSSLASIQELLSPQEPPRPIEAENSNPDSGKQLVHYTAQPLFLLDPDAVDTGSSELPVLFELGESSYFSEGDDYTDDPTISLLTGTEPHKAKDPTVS
As to the kind of experiment: decrease of HSF1-responsive luciferase luminescence – cell-based, NIH3T3, dose retest, confirmation (AID 2382).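 Further: NIH3T3 fibroblasts with HSF1-driven luciferase reporter stressed by proteasome inhibitor MG132; luminescence from HSF1-driven luciferase expression after 8 hours of MG132 stress.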 In kind it is functional.

Another experiment concerns the target T2, Streptokinase A (Streptococcus pyogenes serotype M1, UniProt P10520).
T2 sequence (P10520 whole entry): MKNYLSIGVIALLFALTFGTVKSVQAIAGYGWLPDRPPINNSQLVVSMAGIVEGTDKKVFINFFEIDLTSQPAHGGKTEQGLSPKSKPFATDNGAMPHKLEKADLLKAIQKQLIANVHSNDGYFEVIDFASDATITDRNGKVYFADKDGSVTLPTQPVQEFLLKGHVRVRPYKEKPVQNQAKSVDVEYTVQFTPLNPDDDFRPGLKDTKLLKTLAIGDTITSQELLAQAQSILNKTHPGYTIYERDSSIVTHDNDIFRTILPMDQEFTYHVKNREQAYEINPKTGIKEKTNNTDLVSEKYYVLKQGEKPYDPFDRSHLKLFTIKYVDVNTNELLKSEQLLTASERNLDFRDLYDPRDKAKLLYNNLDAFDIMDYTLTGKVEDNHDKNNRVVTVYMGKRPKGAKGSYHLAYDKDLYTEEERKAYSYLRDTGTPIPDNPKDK
Kind of experiment: viability-normalized secreted streptokinase activity reduction – plasminogen activation absorbance, OD405, dose response (AID 1914).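 Further: secreted streptokinase activity via plasminogen activation per viability signal from cell pellet.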 In kind it is functional, Streptococcus pyogenes M1 GAS.

Experiment [2] deals with Induced myeloid leukemia cell differentiation protein Mcl-1 (Homo sapiens, UniProt Q07820). It is filed as functional.
Chain of Induced myeloid leukemia cell differentiation protein Mcl-1 (Q07820 whole entry): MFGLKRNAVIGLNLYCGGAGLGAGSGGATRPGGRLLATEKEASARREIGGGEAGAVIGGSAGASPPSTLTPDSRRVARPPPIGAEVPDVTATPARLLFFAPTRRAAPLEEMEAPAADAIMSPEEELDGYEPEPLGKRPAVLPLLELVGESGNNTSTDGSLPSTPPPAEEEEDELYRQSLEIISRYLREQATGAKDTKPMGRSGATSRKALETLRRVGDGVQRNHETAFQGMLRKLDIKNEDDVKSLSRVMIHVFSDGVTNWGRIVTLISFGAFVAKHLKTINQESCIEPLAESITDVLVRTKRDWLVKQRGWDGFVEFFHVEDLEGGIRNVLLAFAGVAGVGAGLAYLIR
Experiment [3] addresses C-C chemokine receptor type 6 (Homo sapiens, UniProt P51684). As to the kind of experiment: antagonism of CCR6 beta-arrestin recruitment – cell-based, luminescent beta-arrestin readout, dose response (AID 504728). It is filed as functional. A general note: Activated receptors often draw arrestin, which recruitment assays turn into a signal.
A further experiment has as its target Beta-galactosidase (Escherichia coli, UniProt Q8VNN2). As to the kind of experiment: detection-enzyme interference by beta-gal modulators – biochemical, E. coli enzyme, set 3, artefact control for CCR6 antagonist project, dose response (AID 504712). It is filed as functional.
The target of experiment [4] is T3, Replicative DNA helicase DnaB (Mycobacterium tuberculosis, UniProt P9WMR3).
T3 sequence (P9WMR3 whole entry): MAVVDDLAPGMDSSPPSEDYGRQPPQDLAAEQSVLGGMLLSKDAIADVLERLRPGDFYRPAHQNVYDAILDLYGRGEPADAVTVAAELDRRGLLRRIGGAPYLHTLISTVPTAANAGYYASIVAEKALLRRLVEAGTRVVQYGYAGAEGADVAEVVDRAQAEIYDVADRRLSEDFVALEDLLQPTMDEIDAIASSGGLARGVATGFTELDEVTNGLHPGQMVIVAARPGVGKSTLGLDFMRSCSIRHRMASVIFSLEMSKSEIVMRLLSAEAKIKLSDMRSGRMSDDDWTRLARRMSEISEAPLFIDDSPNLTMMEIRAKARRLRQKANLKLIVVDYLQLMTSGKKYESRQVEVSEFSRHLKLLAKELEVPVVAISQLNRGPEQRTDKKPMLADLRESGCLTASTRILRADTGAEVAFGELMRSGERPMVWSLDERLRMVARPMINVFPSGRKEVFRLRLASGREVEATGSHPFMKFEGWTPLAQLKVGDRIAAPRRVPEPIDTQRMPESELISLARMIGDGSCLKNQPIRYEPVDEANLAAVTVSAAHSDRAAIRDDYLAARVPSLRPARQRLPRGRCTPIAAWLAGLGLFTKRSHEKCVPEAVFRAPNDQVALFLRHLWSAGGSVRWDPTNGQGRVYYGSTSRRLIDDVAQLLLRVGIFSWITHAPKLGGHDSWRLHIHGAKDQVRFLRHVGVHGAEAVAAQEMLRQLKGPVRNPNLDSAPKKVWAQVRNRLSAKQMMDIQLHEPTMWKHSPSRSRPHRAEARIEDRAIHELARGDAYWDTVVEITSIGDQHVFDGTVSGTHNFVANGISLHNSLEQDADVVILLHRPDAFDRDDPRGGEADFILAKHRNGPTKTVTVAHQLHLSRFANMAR
Kind of experiment: DnaB intein splicing inhibitors, dose response, biochemical, cell-free fluorescence (AID 449749). It is filed as functional.

Another experiment deals with T4, Protein RecA (Mycobacterium tuberculosis, UniProt P9WHJ3).
T4 sequence (P9WHJ3 whole entry): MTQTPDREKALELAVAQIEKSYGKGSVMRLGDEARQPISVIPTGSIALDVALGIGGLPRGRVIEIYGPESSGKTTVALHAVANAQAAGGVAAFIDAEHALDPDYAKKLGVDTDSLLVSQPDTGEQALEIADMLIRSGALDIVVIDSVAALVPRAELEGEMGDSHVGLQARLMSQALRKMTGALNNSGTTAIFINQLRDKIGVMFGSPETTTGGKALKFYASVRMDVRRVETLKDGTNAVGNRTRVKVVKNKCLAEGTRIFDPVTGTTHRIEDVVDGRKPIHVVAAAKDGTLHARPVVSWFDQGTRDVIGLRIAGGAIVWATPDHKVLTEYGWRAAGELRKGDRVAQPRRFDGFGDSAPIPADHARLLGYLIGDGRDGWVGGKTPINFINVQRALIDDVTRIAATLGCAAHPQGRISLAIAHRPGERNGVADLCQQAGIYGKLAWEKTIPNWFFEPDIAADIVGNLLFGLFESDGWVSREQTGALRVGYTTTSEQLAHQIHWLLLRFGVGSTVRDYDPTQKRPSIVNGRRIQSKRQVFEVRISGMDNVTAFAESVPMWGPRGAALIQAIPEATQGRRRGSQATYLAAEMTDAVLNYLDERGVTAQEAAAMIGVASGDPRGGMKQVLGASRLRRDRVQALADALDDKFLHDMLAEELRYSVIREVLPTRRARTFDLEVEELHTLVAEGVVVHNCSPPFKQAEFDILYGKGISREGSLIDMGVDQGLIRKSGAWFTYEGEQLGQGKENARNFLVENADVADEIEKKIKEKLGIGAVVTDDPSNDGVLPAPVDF
Kind of experiment: Fluorescence Cell-Free Homogeneous Dose Retest to Identify Inhibitors of RecA-Intein Splicing Activity. [Related pubchem assays (depositor defined):AID2097, AID2223, AID489010, AID492950]. It is filed as functional.

For experiment [5], the target named is Multidrug resistance protein CDR2 (Candida albicans (strain SC5314 / ATCC MYA-2876) (Yeast), UniProt P78595). Kind of experiment: inhibition of Nile Red efflux via Candida CDR2 – S. cerevisiae AD1-8u, singleplex, Cherry Pick1 hits, dose response (AID 588604). It is filed as functional.
Chain of Multidrug resistance protein CDR2 (P78595 whole entry): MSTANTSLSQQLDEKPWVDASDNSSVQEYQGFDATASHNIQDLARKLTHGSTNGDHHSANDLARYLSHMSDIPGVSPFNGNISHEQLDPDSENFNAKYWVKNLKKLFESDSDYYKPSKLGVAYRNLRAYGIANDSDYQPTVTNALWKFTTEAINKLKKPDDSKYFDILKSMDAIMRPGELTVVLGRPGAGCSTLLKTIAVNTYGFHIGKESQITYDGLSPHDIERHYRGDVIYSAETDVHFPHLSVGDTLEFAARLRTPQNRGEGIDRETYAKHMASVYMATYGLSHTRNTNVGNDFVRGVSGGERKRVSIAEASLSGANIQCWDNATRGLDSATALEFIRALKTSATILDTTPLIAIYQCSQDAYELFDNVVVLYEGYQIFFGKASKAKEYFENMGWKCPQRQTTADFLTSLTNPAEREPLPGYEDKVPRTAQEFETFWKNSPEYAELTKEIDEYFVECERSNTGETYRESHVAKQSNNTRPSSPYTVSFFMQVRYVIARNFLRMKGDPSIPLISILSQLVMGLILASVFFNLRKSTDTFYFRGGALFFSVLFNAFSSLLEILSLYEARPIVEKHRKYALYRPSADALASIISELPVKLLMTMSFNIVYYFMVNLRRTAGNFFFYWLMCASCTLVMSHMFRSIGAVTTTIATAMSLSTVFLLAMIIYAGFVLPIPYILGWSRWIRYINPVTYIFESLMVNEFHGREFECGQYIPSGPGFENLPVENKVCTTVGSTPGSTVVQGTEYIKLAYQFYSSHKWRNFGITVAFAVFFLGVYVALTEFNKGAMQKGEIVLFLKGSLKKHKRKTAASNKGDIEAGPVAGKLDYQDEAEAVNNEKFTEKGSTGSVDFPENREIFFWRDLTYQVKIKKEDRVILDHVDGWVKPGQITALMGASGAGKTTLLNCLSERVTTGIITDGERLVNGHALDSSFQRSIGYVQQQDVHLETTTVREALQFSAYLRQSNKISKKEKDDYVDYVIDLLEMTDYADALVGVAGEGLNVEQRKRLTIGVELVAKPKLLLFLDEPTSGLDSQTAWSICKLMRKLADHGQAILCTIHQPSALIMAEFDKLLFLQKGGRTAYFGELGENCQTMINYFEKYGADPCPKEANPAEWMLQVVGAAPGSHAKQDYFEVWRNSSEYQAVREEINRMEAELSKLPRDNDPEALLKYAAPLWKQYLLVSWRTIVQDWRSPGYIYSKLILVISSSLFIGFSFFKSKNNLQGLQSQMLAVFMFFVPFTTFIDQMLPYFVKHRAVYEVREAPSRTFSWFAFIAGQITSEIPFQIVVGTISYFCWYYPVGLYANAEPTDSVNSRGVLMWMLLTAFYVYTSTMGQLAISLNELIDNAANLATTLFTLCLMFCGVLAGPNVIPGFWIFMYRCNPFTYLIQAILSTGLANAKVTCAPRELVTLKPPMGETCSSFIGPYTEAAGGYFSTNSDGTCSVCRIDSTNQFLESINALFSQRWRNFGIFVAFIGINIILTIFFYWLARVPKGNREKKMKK
A further experiment deals with Genome polyprotein (dengue virus type 2, UniProt P29990). Kind of experiment: flavivirus cap methylation enzyme inhibition – biochemical, confirmation dose response, primary screen (AID 588689). In kind it is functional.
Chain of Genome polyprotein (P29990 2492-3391 limits assumed): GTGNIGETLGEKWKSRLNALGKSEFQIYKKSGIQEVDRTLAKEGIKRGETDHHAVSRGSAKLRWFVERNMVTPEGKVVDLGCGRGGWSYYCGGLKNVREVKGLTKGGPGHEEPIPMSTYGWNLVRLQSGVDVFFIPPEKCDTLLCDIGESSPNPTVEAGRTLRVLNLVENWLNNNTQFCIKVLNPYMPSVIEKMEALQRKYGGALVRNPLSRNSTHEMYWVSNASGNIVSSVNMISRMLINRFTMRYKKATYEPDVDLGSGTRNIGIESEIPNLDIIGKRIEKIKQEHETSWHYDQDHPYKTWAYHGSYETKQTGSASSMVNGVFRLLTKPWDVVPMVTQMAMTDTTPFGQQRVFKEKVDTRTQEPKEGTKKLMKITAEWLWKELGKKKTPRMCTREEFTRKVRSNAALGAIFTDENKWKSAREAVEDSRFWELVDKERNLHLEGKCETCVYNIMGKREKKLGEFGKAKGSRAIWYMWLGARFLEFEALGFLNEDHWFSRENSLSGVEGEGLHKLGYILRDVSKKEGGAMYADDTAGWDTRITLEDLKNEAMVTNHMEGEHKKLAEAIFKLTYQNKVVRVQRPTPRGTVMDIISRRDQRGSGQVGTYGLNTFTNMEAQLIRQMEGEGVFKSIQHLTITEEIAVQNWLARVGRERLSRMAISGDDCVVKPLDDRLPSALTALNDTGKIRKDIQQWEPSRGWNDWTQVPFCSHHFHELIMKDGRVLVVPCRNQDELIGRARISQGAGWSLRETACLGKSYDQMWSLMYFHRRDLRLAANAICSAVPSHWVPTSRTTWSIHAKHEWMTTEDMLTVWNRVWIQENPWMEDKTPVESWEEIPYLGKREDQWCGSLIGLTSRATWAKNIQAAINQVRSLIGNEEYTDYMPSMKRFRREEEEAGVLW
Experiment [6] deals with T5, Mitochondrial peptide methionine sulfoxide reductase (Bos taurus, UniProt P54149).
T5 sequence (P54149 whole entry): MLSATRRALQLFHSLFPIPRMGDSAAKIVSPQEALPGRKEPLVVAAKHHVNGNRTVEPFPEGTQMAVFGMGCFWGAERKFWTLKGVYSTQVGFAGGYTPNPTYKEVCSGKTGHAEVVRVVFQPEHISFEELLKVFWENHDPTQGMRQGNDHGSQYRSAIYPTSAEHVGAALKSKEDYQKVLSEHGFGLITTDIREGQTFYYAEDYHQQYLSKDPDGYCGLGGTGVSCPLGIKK
Kind of experiment: Absorbance-based biochemical high throughput dose response assay for activators of Methionine sulfoxide reductase A (MsrA). In kind it is functional.

Activity calls are given as the source filed them. Where only a bound is given, the exact number is not on record here.

Chain of Beta-galactosidase (Q8VNN2 whole entry): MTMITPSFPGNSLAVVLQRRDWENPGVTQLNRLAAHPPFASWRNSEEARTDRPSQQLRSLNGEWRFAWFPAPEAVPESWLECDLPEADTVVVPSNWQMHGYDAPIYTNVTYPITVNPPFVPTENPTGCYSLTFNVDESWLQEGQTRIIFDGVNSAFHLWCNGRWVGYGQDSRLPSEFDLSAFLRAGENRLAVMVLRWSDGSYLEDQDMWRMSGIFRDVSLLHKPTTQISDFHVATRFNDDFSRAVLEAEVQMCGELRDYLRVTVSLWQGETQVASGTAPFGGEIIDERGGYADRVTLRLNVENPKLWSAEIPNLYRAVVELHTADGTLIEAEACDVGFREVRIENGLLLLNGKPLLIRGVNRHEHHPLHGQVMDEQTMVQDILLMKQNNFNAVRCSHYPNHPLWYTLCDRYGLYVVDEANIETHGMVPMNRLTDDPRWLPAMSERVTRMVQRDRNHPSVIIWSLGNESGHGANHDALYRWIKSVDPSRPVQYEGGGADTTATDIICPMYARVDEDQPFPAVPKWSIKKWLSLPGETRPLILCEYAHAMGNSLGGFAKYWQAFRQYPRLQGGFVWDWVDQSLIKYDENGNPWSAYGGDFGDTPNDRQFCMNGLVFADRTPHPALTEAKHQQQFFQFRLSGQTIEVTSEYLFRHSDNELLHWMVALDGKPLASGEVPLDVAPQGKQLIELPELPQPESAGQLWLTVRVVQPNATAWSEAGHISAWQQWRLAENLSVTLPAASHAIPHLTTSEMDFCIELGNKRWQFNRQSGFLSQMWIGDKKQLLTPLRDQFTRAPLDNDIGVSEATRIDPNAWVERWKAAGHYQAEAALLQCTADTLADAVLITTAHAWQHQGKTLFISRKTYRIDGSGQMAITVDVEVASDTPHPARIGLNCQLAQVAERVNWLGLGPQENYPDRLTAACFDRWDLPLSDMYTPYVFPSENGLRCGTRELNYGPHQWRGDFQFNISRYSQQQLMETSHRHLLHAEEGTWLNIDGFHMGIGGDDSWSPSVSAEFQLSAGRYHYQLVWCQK
Chain of C-C chemokine receptor type 6 (P51684 whole entry): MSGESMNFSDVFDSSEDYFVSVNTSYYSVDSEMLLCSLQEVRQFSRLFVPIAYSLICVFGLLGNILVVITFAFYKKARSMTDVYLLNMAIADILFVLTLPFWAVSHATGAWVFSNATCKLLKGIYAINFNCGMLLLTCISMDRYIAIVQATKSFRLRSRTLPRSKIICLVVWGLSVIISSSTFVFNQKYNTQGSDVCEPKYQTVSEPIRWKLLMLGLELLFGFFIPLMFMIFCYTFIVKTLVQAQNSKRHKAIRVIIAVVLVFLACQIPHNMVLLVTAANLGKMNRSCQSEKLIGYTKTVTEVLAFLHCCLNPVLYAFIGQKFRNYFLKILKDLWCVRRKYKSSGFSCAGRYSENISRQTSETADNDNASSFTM

As to `O=C1C(Cl)=C(Nc2ccc3cn[nH]c3c2)C(=O)c2ccccc21`, the EC50 in experiment [1] was 5.42 µM (active); at Streptokinase A, 6.22 µM (active); on Protein RecA, 0.955 µM (active); in experiment [5] it was 40.6 µM (active); in [6], > 104 µM (inactive). In addition, the 50% inhibitory concentration (IC50) is 6.25 µM (active) in [2], > 66.6 µM (inactive) in experiment [3], > 66.6 µM (inactive) on Beta-galactosidase and 18.7 µM (active) at Genome polyprotein. In [4], the half-maximal activity concentration (AC50) was 1.65 µM (active).
